Source: patent publication US6914045B2, “Glycopeptide antibiotics” (Wyeth Holdings Corporation, priority 2001, dated 2005)
Values after ≈ are worked out from the molar mass of the structure shown.

How the values were obtained:
Assay in all cases: in vitro antibacterial evaluation, MIC by broth dilution
Format in all cases: cell-based
Escherichia coli = conditions: 18 hours at 35° C.
Method in brief: (§1)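 Inoculum 5×10^5 CFU/mL; concentrations 64 to 0.06 μg/mL; MIC defined as lowest inhibitory level. Conducted by broth dilution under NCCLS guidelines.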

Streptococcus sp. = conditions: broth dilution, 18 hours at 35° C.
Method in brief: as §1

Staphylococcus sp. = conditions: broth dilution, 18 hours at 35° C.
Method in brief: as §1

Enterococcus sp. = conditions: broth dilution, 18 hours at 35° C.
Method in brief: as §1

MIC Escherichia coli (ATCC 25922) (Escherichia coli; strain ATCC 25922): 32 µg/mL (≈ 22.8 µM)
MIC Escherichia coli (GC 4559) (Escherichia coli; strain GC 4559): 32 µg/mL (≈ 22.8 µM)
MIC Escherichia coli (GC 4560) (Escherichia coli; strain GC 4560): 2 µg/mL (≈ 1.43 µM)
MIC Streptococcus agalactiae (GC 4564) (Streptococcus sp.; Streptococcus agalactiae (GC 4564)): 0.12 µg/mL (≈ 0.0855 µM)
MIC Streptococcus pneumoniae (ATCC 6301) (Streptococcus sp.; Streptococcus pneumoniae (ATCC 6301)): <0.06 µg/mL
MIC Streptococcus pneumoniae (GC 1894) (Streptococcus sp.; Streptococcus pneumoniae (GC 1894)): <0.06 µg/mL
MIC Streptococcus pneumoniae (GC 4565) (Streptococcus sp.; Streptococcus pneumoniae (GC 4565)): 0.12 µg/mL (≈ 0.0855 µM)
MIC Streptococcus pyogenes (GC 4563) (Streptococcus sp.; Streptococcus pyogenes (GC 4563)): <0.06 µg/mL
MIC Streptococcus pneumoniae (ATCC 6301) (Streptococcus sp.; strain ATCC 6301): <0.06 µg/mL
MIC Streptococcus pneumoniae (GC 1894) (Streptococcus sp.; strain GC 1894): <0.06 µg/mL
MIC Streptococcus pyogenes (GC 4563) (Streptococcus sp.; strain GC 4563): <0.06 µg/mL
MIC Streptococcus agalactiae (GC 4564) (Streptococcus sp.; strain GC 4564): 0.12 µg/mL (≈ 0.0855 µM)
MIC Streptococcus pneumoniae (GC 4565) (Streptococcus sp.; strain GC 4565): 0.12 µg/mL (≈ 0.0855 µM)
MIC Staphylococcus aureus (ATCC 29213) (Staphylococcus sp.): 2 µg/mL (≈ 1.43 µM)
MIC Staphylococcus aureus (GC 1131) (Staphylococcus sp.): 2 µg/mL (≈ 1.43 µM)
MIC Staphylococcus aureus (GC 3051) (Staphylococcus sp.): 2 µg/mL (≈ 1.43 µM)
MIC Staphylococcus aureus (GC 3053) (Staphylococcus sp.): 2 µg/mL (≈ 1.43 µM)
MIC Staphylococcus aureus (GC 4541) (Staphylococcus sp.): 2 µg/mL (≈ 1.43 µM)
MIC Staphylococcus aureus (GC 4542) (Staphylococcus sp.): 2 µg/mL (≈ 1.43 µM)
MIC Staphylococcus aureus (GC 4544) (Staphylococcus sp.): 1 µg/mL (≈ 0.713 µM)
MIC Staphylococcus aureus (GC 4545) (Staphylococcus sp.): 2 µg/mL (≈ 1.43 µM)
MIC Staphylococcus aureus (GC 1131) (Staphylococcus sp.; inoculum 5×10^5 CFU/mL, strain GC 1131): 2 µg/mL (≈ 1.43 µM)
MIC Staphylococcus aureus (ATCC 29213) (Staphylococcus sp.; strain ATCC 29213): 2 µg/mL (≈ 1.43 µM)
MIC Staphylococcus aureus (GC 3051) (Staphylococcus sp.; strain GC 3051): 2 µg/mL (≈ 1.43 µM)
MIC Staphylococcus aureus (GC 3053) (Staphylococcus sp.; strain GC 3053): 2 µg/mL (≈ 1.43 µM)
MIC Staphylococcus aureus (GC 4541) (Staphylococcus sp.; strain GC 4541): 2 µg/mL (≈ 1.43 µM)
MIC Staphylococcus aureus (GC 4542) (Staphylococcus sp.; strain GC 4542): 2 µg/mL (≈ 1.43 µM)
MIC Staphylococcus aureus-SMITH (GC 4543) (Staphylococcus sp.; strain GC 4543): 2 µg/mL (≈ 1.43 µM)
MIC Staphylococcus aureus (GC 4544) (Staphylococcus sp.; strain GC 4544): 1 µg/mL (≈ 0.713 µM)
MIC Staphylococcus aureus (GC 4545) (Staphylococcus sp.; strain GC 4545): 2 µg/mL (≈ 1.43 µM)
MIC Coagulase Negative Staphylococcus (GC 4547) (Staphylococcus sp.; strain GC 4547): 2 µg/mL (≈ 1.43 µM)
MIC Coagulase Negative Staphylococcus (GC 4548) (Staphylococcus sp.; strain GC 4548): 1 µg/mL (≈ 0.713 µM)
MIC Coagulase Negative Staphylococcus (GC 4549) (Staphylococcus sp.; strain GC 4549): 1 µg/mL (≈ 0.713 µM)
MIC Coagulase Negative Staphylococcus (GC 4551) (Staphylococcus sp.; strain GC 4551): 2 µg/mL (≈ 1.43 µM)
MIC Coagulase Negative Staphylococcus (GC 6257) (Staphylococcus sp.; strain GC 6257): 1 µg/mL (≈ 0.713 µM)
MIC Staphylococcus aureus-SMITH (GC 4543) (Staphylococcus sp.; strain SMITH GC 4543): 2 µg/mL (≈ 1.43 µM)
MIC Enterococcus avium (GC 4558) (Enterococcus sp.; Enterococcus avium (GC 4558)): 2 µg/mL (≈ 1.43 µM)
MIC Enterococcus faecalis (ATCC 29212) (Enterococcus sp.; Enterococcus faecalis (ATCC 29212)): 2 µg/mL (≈ 1.43 µM)
MIC Enterococcus faecalis (GC 2242) (Enterococcus sp.; Enterococcus faecalis (GC 2242)): 2 µg/mL (≈ 1.43 µM)
MIC Enterococcus faecalis (GC 2691) (Enterococcus sp.; Enterococcus faecalis (GC 2691)): 2 µg/mL (≈ 1.43 µM)
MIC Enterococcus faecalis (GC 3059) (Enterococcus sp.; Enterococcus faecalis (GC 3059)): 2 µg/mL (≈ 1.43 µM)
MIC Enterococcus faecalis (GC 4552) (Enterococcus sp.; Enterococcus faecalis (GC 4552)): 2 µg/mL (≈ 1.43 µM)
MIC Enterococcus faecalis (GC 4553) (Enterococcus sp.; Enterococcus faecalis (GC 4553)): 4 µg/mL (≈ 2.85 µM)
MIC Enterococcus faecalis (GC 4554) (Enterococcus sp.; Enterococcus faecalis (GC 4554)): 2 µg/mL (≈ 1.43 µM)
MIC Enterococcus faecalis (GC 6189) (Enterococcus sp.; Enterococcus faecalis (GC 6189)): 2 µg/mL (≈ 1.43 µM)
MIC Enterococcus faecium (GC 2243) (Enterococcus sp.; Enterococcus faecium (GC 2243)): 2 µg/mL (≈ 1.43 µM)
MIC Enterococcus faecium (GC 4556) (Enterococcus sp.; Enterococcus faecium (GC 4556)): 2 µg/mL (≈ 1.43 µM)
MIC Enterococcus faecium (GC 4557) (Enterococcus sp.; Enterococcus faecium (GC 4557)): 4 µg/mL (≈ 2.85 µM)
MIC Enterococcus faecalis (ATCC 29212) (Enterococcus sp.; strain ATCC 29212): 2 µg/mL (≈ 1.43 µM)
MIC Enterococcus faecalis (GC 2242) (Enterococcus sp.; strain GC 2242): 2 µg/mL (≈ 1.43 µM)
MIC Enterococcus faecium (GC 2243) (Enterococcus sp.; strain GC 2243): 2 µg/mL (≈ 1.43 µM)
MIC Enterococcus faecalis (GC 2691) (Enterococcus sp.; strain GC 2691): 2 µg/mL (≈ 1.43 µM)
MIC Enterococcus faecalis (GC 3059) (Enterococcus sp.; strain GC 3059): 2 µg/mL (≈ 1.43 µM)
MIC Enterococcus faecalis (GC 4552) (Enterococcus sp.; strain GC 4552): 2 µg/mL (≈ 1.43 µM)
MIC Enterococcus faecalis (GC 4553) (Enterococcus sp.; strain GC 4553): 4 µg/mL (≈ 2.85 µM)
MIC Enterococcus faecalis (GC 4554) (Enterococcus sp.; strain GC 4554): 2 µg/mL (≈ 1.43 µM)
MIC Enterococcus faecium (GC 4556) (Enterococcus sp.; strain GC 4556): 2 µg/mL (≈ 1.43 µM)
MIC Enterococcus faecium (GC 4557) (Enterococcus sp.; strain GC 4557): 4 µg/mL (≈ 2.85 µM)
MIC Enterococcus avium (GC 4558) (Enterococcus sp.; strain GC 4558): 2 µg/mL (≈ 1.43 µM)
MIC Enterococcus faecalis (GC 6189) (Enterococcus sp.; strain GC 6189): 2 µg/mL (≈ 1.43 µM)
SMILES: CC(c1ccccc1)C1NC(=O)CNC(=O)C(CO)NC(=O)C(C(O)C2CNC(=N)N2C2OC(CO)C(O)C(O)C2O)NC(=O)C(C(O)C2CNC(=N)N2)NC(=O)C(Cc2ccc(OC3OC(CO)C(OC4OC5COC(CC6CCCCC6)OC5C(O)C4O)C(O)C3O)cc2)NC1=O (stereo not shown) [Example 122]
MIC Staphylococcus haemolyticus (GC 4546) (Staphylococcus sp.; strain GC 4546): 2 µg/mL (≈ 1.43 µM)
